{
  "source": "patent US20030035843A1",
  "about": "“Method for processing and preserving collagen-based tissues for transplantation” (LifeCell Corporation, a Delaware corporation, priority 1990, published 2003)",
  "molecules": {"B1": {"name": "Thermolysin: enzyme used for decellularization; attacks the bulbous phemphigoid antigen in the hemidesmosome (protein, UniProt P00800 233-548, looked up)", "Thermolysin": "ITGTSTVGVGRGVLGDQKNINTTYSTYYYLQDNTRGNGIFTYDAKYRTTLPGSLWADADNQFFASYDAPAVDAHYYAGVTYDYYKNVHNRLSYDGNNAAIRSSVHYSQGYNNAFWNGSQMVYGDGDGQTFIPLSGGIDVVAHELTHAVTDYTAGLIYQNESGAINEAISDIFGTLVEFYANKNPDWEIGEDVYTPGISGDSLRSMSDPAKYGDPDHYSKRYTGTQDNGGVHINSGIINKAAYLISQGGTHYGVSVVGIGRDKLGKIFYRALTQYLTPTSNFSQLRAAAVQSATDLYGSTSQEVASVKQAFDAVGVK"}},
  "key": {"human cadaver skin": {"system": "human cadaver skin", "test": "Removal of epidermis/keratinocytes from human cadaver skin by enzyme or salt incubation", "description": "Alternatively, enzymes may be used to accomplish decellularization, including but not limited to dispase II, trypsin, and thermolysin. These enzymes react with different components of collagen and intercellular connections in achieving their effects. Dispase II attacks Type IV collagen, which is a component of the lamina densa and anchoring fibrils of the basement membrane. Thermolysin attacks the bulbous phemphigoid antigen in the hemidesmosome of the basal layer of keratinocytes. Trypsin attacks the desmosome complex between cells. Due to the proteolytic nature of these enzymes, care must be taken that cellular removal occurs without significant damage to the extracellular matrix, including the basement membrane complex. This is a function of concentration, time and temperature. If used for too long a time or at too high a concentration, dispase II for example can completely remove the basement membrane complex from the dermis."}, "porcine skin": {"system": "porcine skin", "test": "Separation of epidermis and dermis of porcine skin by salt incubation", "details": "1 molar, 48 hours"}},
  "data": [
    {"molecule": "[Cl-].[Na+]", "note": "[sodium chloride]", "values": [
      {"measurement": "separation of the epidermis and dermis", "setting": "human cadaver skin; 1 molar, 16 hours, human skin", "result": "clean separation of the epidermis and dermis without damage to the basement membrane complex"},
      {"measurement": "separation of the epidermis and dermis", "setting": "porcine skin", "result": "clean separation of the epidermis and dermis without damage to the basement membrane complex"}
    ]},
    {"molecule": "B1", "values": [
      {"measurement": "removal of keratinocytes", "setting": "human cadaver skin; 200 ug/ml, 30 minutes, 4° C., human cadaver skin", "result": "essentially remove all keratinocytes"}
    ]}
  ]
}
